Source: article PMC4008261, “Rewiring of regenerated axons by combining treadmill training with semaphorin3A inhibition” (Molecular Brain, 2014)

Columns and labels:
[1] = test system: Transcription response, NF-AT; test: Pharmacological profile: transcription response; type: cell-based
From the text: (§1) Table 1 Pharmacological profile of SM-345431 (part 1) | column: IC50 (μm)

[2] = test system: Transcription response, NF-kB; test: Pharmacological profile: transcription response; type: cell-based
From the text: as §1

[3] = test system: SCT adult rats; test: Remyelination after SCT (MBP/GAP43 immunostaining, electron microscopy); type: in vivo, rat
Description: (§2) Rats were randomly divided into the following three experimental groups: 1) untrained + placebo, 2) untrained + SM-345431 and 3) trained + SM-345431. SCT was performed, and SM-345431 or placebo was administered at the lesion site via the newly developed DDS, which is described in detail below. Starting 1 week post-injury, treadmill training commenced with a BSS. Kinematic tests were performed monthly for 3 months after SCT using a rodent robotic device (Rodent robot 3000, Robomedica Inc.) that primarily assessed the performance of plantar stepping on a treadmill. Treadmill training was continued throughout the experimental period.
A total of 53 adult female Sprague-Dawley rats (200-250 g, 10-12 weeks old) were used in this study (3 rats died during the experimental period and were excluded from the statistical analysis). All procedures were approved by the experimental animal care committee of Keio University, School of Medicine and Murayama Medical Center (approval #12-8). All rats were anesthetized with an intraperitoneal injection of ketamine (100 mg/kg)/xylazine (10 mg/kg). The spinal cord at the level of the T10 lamina was exposed by T10 laminectomy, and the dorsal dura mater was opened. […] Kinematic data were recorded using similar procedures prior to re-transection surgery (on the same day) and on the day following re-transection surgery. […]

[4] = test system: SCT adult rats; test: Kinematic analysis of hindlimb motor performance on a treadmill; type: in vivo, rat
Description: as §2
A robotic device (rodent robot 3000, Robomedica Inc.) was used to train the SCT rats. Briefly, the device consisted of a computer-controlled BSS, two lightweight robotic arms and a treadmill with variable motorized speeds. The ankles of the hindlimbs of rats were held with a pair of releasable rope cuffs, which were then secured to robotic arms to track ankle trajectory in the horizontal and vertical directions. A computer-controlled body support arm was used to control the load that was applied to the hindlimbs and to maintain body equilibrium. Rats were secured in a cloth vest and attached to the body support arm with a hook-and-loop fabric. Hard rope cuffs were attached to the hindlimbs of rats with the robotic arm during training.
Additionally, improvements in motor performance were more obvious when the treadmill training was initiated at earlier time points after SCT. Therefore, training was initiated as early as 1 week after SCT. The fixed parameters were set at 50% body weight support (BWS), 20 min/day and 5 days/week. The animals were adapted to the training via increasing velocity; a velocity of 1 cm/s was used in the first week, and then the velocity was increased by 2 cm/s every 2 weeks for the first 2 months after injury (i.e., 1 cm/s to 3 cm/s to 5 cm/s). […] Once the rats dragged their hindlimbs and stopped walking on the treadmill, a trainer brought their bodies back to the original walking position. The step ability of SCT rats on the treadmill improved gradually over the course of the first 2 months following injury. However, this improvement was attenuated at time points later than 2 months after injury.
To evaluate the locomotor capability of SCT rats in detail, the aforementioned robotic device was employed. Each robotic arm tracked the two-dimensional movement of the ankle, and the trajectory of the ankle movement was then recorded on a computer for kinematic analyses. Not all the rats were able to walk by themselves on the treadmill by the last time point of the experiment. Therefore, when performing the tests, the degree of BWS and treadmill speed were titrated to obtain the maximum walking performance on the treadmill. As a result of this titration, the behavioral tests were performed at 70% BWS and a treadmill velocity of 1 cm/s each month after SCT. The duration of testing was 1 min per rat to minimize training effects during testing. The methods of previous reports were followed with slight adaptations. Briefly, the ankle trajectory in each plane was recorded by the robotic arm and a computer. Then, the toe off (TO) and paw contact (PC) events in each step cycle were identified using Rodent Robot 3000 software. All kinematic characteristics were obtained when TO and PC were identified; as a result, parameters such as the duration phase, the swing phase of the step cycle and the length and height of the step were calculated. The number of animals used in these behavioral tests was 32 (control: n = 9, SM-345431: n = 12, combined: n = 11).

[5] = SM-345431 alone, 70% BWS, 1 cm/s

## CC(=O)c1cc2c(=O)c3c(C(=O)O)c(O)c(O)cc3oc2c(C(C)=O)c1-c1coc2cc(O)c(O)c(C(=O)O)c2c1=O [SM-345431, Vinaxanthone]
[1]
  IC50: > 10 µM
[2]
  IC50: > 10 µM
[3]; SM-345431 alone, 12 weeks post-injury
  remyelination of axons (myelinated GAP43-positive axons at the lesion site): significantly enhanced the remyelination of axons
[3]; SM-345431 plus treadmill training, compared with SM-345431 alone
  remyelination of axons (myelinated GAP43-positive axons at the lesion site): additional remyelination was not observed
[4]; SM-345431 alone, without extensive treadmill training
  plantar step walking on a treadmill with the BSS: did not result in plantar step walking
[4]; [5]
  effect on the step height parameter: moderate and statistically insignificant
  locomotor function on a treadmill, step length parameters (average and maximum): improved locomotor function
[4]; SM-345431 alone, P < 0.05 at 3 months
  step cycle area versus control SCT rats: statistically significant enhancement
[4]; SM-345431 combined with extensive treadmill training
  effect on the step height parameter (average and maximum): greater enhancement was observed
[4]; SM-345431 combined with extensive treadmill training, all rats
  duration of continuous plantar step walking on a treadmill with the BSS: at least 30 min
[4]; SM-345431 combined with treadmill training, P < 0.05 first month, P < 0.01 second and third month
  step cycle area versus control SCT rats: even greater improvement
